Test results as given in PMC12207590, “Substrate Specificity of the Organic Cation Transporters MATE1 and MATE2K and Functional Overlap with OCT1 and OCT2” (Journal of Medicinal Chemistry, 2025).
Like-named read-outs stand apart in the source and are kept apart here.

Columns and labels:
MATE1 = molecular target: T1, MATE1 (Homo sapiens, UniProt Q96FL8); test: Uptake ratio in MATE1-overexpressing HEK293 cells vs empty vector (2.5 μM, 1 min, HPLC-MS/MS); assay type: cell-based
T1 sequence (Q96FL8 1-570): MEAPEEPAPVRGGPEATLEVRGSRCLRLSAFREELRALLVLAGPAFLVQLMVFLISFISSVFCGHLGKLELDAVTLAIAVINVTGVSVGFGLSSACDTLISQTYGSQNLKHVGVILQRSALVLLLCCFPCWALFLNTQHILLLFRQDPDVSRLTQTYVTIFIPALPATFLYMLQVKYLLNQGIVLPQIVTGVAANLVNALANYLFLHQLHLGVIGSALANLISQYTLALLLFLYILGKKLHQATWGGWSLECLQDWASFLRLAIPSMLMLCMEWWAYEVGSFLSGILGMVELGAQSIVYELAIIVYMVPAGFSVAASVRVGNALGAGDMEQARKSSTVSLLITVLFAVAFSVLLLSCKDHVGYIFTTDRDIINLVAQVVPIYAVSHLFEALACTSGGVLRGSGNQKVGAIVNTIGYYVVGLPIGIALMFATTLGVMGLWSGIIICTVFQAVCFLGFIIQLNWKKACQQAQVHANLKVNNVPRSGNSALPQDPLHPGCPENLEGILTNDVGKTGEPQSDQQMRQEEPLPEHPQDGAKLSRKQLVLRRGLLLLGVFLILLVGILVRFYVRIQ

MATE2K = MATE2K (Homo sapiens, UniProt Q86VL8); test: Uptake ratio in MATE2K-overexpressing HEK293 cells vs empty vector (2.5 μM, 1 min, HPLC-MS/MS); assay type: cell-based
Sequence of MATE2K (Q86VL8 1-566 isoform Q86VL8-3): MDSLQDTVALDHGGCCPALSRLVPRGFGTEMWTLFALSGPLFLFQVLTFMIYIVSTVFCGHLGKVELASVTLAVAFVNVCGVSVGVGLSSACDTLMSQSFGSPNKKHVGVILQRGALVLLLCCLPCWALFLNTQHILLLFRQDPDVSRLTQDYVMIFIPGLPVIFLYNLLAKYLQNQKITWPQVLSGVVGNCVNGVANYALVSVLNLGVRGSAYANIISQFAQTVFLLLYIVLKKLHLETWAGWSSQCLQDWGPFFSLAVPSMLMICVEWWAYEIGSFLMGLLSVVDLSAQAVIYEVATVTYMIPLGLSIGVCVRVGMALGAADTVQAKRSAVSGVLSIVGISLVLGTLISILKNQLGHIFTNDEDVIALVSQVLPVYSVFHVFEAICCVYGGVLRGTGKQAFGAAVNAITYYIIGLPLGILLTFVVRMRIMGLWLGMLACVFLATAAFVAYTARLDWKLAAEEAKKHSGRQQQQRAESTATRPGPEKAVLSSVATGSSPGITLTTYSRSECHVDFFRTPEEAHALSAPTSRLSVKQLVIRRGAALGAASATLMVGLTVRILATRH

[1] = fold uptake over empty vector, 2.5 μM, 1 min
[2] = mean ratio of uptake in MATE1-overexpressing HEK293 cells vs empty vector, 2.5 μM, 1 min
[3] = mean ratio of uptake in MATE2K-overexpressing HEK293 cells vs empty vector, 2.5 μM, 1 min
[4] = uptake ratio MATE1-overexpressing vs empty-vector HEK293 cells, 2.5 μM, 1 min, mean
[5] = uptake ratio MATE2K-overexpressing vs empty-vector HEK293 cells, 2.5 μM, 1 min, mean

Compound | MATE1 ratio (MATE1; [1]) | MATE2K ratio (MATE2K; [1]) | MATE1 ratio (MATE1) | MATE2K ratio (MATE2K) | also measured
N[C@@H](Cc1ccccc1)C(=O)O [Phenylalanine] | 0.66 | 1.01 |  |  | 
CC(C)(C)NCC(O)c1ccc(O)c(O)c1 (centres unmarked) [Colterol] | 10.79 | 5.80 |  |  | MATE1 (uptake ratio) (MATE1; [2]): 10.79; MATE2 (uptake ratio) (MATE2K; [3]): 5.8
N=C(N)NC(=N)Nc1ccc(Cl)cc1 [1-(4-Chlorophenyl)biguanide] |  |  | 6.97 | 3.82 | MATE1 (uptake ratio) (MATE1): 6.97; MATE2 (uptake ratio) (MATE2K): 3.82
NCCCC[C@H](N)C(=O)O [Lysine] |  |  | 1.13 | 1.05 | 
Nc1nc(NC2CC2)c2ncn([C@H]3C=C[C@@H](CO)C3)c2n1 [Abacavir] | 0.94 | 1.25 |  |  | MATE1 (uptake ratio) (MATE1; [2]): 0.94; MATE2 (uptake ratio) (MATE2K; [3]): 1.25
N=C(N)NC(=O)Cc1c(Cl)cccc1Cl [Guanfacine] | 1.60 | 1.37 |  |  | 
Nc1ccn([C@@H]2O[C@H](CO)[C@@H](O)C2(F)F)c(=O)n1 [Gemcitabine] | 1.29 | 1.08 |  |  | MATE1 ratio in this study (MATE1; Table S1, 2.5 μM, 1 min): 1.29; MATE2K ratio in this study (MATE2K; Table S1, 2.5 μM, 1 min): 1.08
CNCC/C=C1/c2ccccc2CC(O)c2ccccc21 (centres unmarked) [10-OH-Nortriptyline] |  |  | 1.17 | 1.14 | MATE1 (uptake ratio) (MATE1): 1.17; MATE2 (uptake ratio) (MATE2K): 1.14
O=C(NCCNCC(O)COc1ccc(O)cc1)N1CCOCC1 (centres unmarked) [Xamoterol] |  |  |  |  | MATE1 (MATE1; [4]): 7.62; MATE2 (MATE2K; [5]): 6.13
C[C@@H]1Cc2c(Cl)cc(C(=O)N[C@@H](Cc3ccccc3)C(=O)O)c(O)c2C(=O)O1 [Ochratoxin A] |  |  | 3.12 | 1.28 | substrate of MATE1 (MATE1): substrates of MATE1
NCC(O)c1ccc(O)cc1 (centres unmarked) [Octopamine] | 20.87 | 1.43 |  |  | 
CCCC[N+]1(C)[C@@H]2C[C@@H](OC(=O)[C@H](CO)c3ccccc3)C[C@H]1[C@@H]1O[C@@H]12 (some centres unmarked) [Butylscopolamine] |  |  | 23.84 | 1.70 | MATE1 (uptake ratio) (MATE1): 23.84; MATE1 ratio in this study (MATE1): 23.84; MATE2 (uptake ratio) (MATE2K): 1.7; MATE2K ratio in this study (MATE2K): 1.70
CCC(C)C(=O)OC(CC(=O)[O-])C[N+](C)(C)C (centres unmarked) [2-Methylbutyrylcarnitine] | 0.61 | 1.24 |  |  | MATE1 (uptake ratio) (MATE1; [2]): 0.61; MATE2 (uptake ratio) (MATE2K; [3]): 1.24
COc1ccc(CCNC[C@H](O)c2ccc(O)cc2)cc1OC [Denopamine (R), Denopamine] | 2.32 | 1.69 |  |  | 
CC[N+](CC)(CC)CC [Tetraethylammonium] |  |  |  |  | MATE1 (MATE1): 25.44; MATE2 (MATE2K): 6.73
Nc1cccc2c1CN(C1CCC(=O)NC1=O)C2=O (centres unmarked) [Lenalidomide] | 1.78 | 1.53 |  |  | 
CC(C)(C)NCC(O)c1ccc(O)c(CO)c1 [Salbutamol (S), Salbutamol] | 8.88 | 5.09 |  |  | MATE1 ratio in this study (MATE1; Table S1, 2.5 μM, 1 min): 8.88; MATE1 (MATE1; [4]): 8.88; MATE2K ratio in this study (MATE2K; Table S1, 2.5 μM, 1 min): 5.09; MATE2 (MATE2K; [5]): 5.09
NCCc1c[nH]c2c(O)cc(O)cc12 [5,7-Dihydroxytryptamine] |  |  | 1.13 | 0.84 | MATE1 (uptake ratio) (MATE1): 1.13; MATE2 (uptake ratio) (MATE2K): 0.84
Cc1cc(C(C)(C)C)c(O)c(C)c1CC1=NCCN1 [Oxymetazoline] | 5.22 | 2.29 |  |  | 
CCN1CCCC1CNC(=O)c1cc(S(=O)(=O)CC)c(N)cc1OC [Amisulpride (S), Amisulpride] | 13.70 | 7.93 |  |  | MATE1 (uptake ratio) (MATE1; [2]): 13.7; MATE2 (uptake ratio) (MATE2K; [3]): 7.93
NC(=O)NCCC[C@H](N)C(=O)O [Citrulline] |  |  | 0.77 | 1.26 | MATE1 (uptake ratio) (MATE1): 0.77; MATE2 (uptake ratio) (MATE2K): 1.26
CNC[C@H](O)c1ccc(O)c(O)c1 (racemic) [Epinephrine (rac), Epinephrine] | 18.70 | 3.27 |  |  | 
CN(C)CCc1ccc(O)cc1 [Hordenine] |  |  | 1.16 | 1.20 | 
CN1[C@@H]2CC[C@H]1C[C@@H](OC(=O)c1c[nH]c3ccccc13)C2 [Tropisetron] |  |  |  |  | MATE1 (MATE1; [4]): 1.22; MATE2 (MATE2K; [5]): 1.15
COc1cccc(C2(O)CCCCC2CN(C)C)c1 (centres unmarked) [Tramadol] |  |  |  |  | MATE1 (MATE1): 1.13; MATE2 (MATE2K): 1.44
